IC50 data for 32 compounds are collected here from patent publication US20210317134A1, “UBIQUITIN-SPECIFIC-PROCESSING PROTEASE 7 (USP7) MODULATORS AND USES THEREOF” (RAPT THERAPEUTICS, INC., priority 2019, published 2021).

The structures appear in SMILES notation. Where only a bound is given, the exact number is not on record here.

The assay addresses USP7 (Homo sapiens, UniProt Q93009). The assay is described as follows: USP7 inhibitory potency (Table 1). The assay is classed as biochemical.

Sequence of USP7 (Q93009 whole entry): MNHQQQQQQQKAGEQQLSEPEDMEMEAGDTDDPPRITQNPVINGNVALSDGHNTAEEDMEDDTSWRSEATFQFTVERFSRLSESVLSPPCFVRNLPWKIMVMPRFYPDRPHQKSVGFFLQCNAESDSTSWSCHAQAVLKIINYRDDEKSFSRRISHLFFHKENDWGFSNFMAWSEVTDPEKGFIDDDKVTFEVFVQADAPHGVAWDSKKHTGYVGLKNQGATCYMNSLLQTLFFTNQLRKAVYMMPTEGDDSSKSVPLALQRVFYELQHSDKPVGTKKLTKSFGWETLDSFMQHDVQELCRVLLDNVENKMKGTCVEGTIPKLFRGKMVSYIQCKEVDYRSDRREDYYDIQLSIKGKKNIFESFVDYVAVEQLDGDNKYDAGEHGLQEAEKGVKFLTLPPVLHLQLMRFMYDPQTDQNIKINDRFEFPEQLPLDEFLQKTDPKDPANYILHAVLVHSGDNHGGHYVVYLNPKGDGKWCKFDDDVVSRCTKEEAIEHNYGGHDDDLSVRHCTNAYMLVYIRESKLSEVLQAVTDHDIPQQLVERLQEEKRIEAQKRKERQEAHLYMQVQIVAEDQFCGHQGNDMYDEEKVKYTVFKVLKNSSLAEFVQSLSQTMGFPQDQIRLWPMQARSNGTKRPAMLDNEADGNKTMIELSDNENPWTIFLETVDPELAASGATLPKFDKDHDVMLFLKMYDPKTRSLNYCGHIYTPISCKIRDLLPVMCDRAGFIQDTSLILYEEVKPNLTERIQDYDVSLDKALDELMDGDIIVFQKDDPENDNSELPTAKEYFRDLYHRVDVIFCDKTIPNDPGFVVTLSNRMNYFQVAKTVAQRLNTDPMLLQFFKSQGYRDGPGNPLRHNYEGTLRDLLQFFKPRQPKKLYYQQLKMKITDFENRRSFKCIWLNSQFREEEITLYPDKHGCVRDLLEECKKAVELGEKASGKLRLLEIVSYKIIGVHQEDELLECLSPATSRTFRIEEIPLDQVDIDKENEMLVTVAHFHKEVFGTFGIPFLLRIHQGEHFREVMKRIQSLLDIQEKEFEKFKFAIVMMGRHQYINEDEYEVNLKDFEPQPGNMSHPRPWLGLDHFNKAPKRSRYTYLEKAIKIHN

As a reminder, the IC50 is the concentration that inhibits the measured activity by half. The low end stands for greater potency, the high end for weaker potency. Compound `CC(C)CC(O)c1cc2nccc(-c3cc(Cl)cc4c3O[C@@H](c3onc5c3CNCC5)C4)c2s1` (stereo partly drawn) [1-(7-((R)-5-chloro-2-(4,5,6,7-tetrahydroisoxazolo[4,3-c]pyridin-3-yl)-2,3-dihydrobenzofuran-7-yl)thieno[3,2-b]pyridin-2-yl)-3-methylbutan-1-ol] displayed an IC50 of under 1 µM.

For the compound `O=C(C1Cc2cc(Cl)cc(-c3ccnc4[nH]c(Cc5ccccc5)cc34)c2O1)N1CCNCC1` (centres unmarked) [(7-(2-benzyl-1H-pyrrolo[2,3-b]pyridin-4-yl)-5-chloro-2,3-dihydrobenzofuran-2-yl)(piperazin-1-yl)methanone], the 50% inhibitory concentration (IC50) was in the range of 1 to 10 µM.

`O=C([C@H]1Cc2cc(Cl)cc(-c3ccnc4c3CCC4)c2O1)N1CCNCC1` [(R)-(5-chloro-7-(6,7-dihydro-5H-cyclopenta[b]pyridin-4-yl)-2,3-dihydrobenzofuran-2-yl)(piperazin-1-yl)methanone] showed an IC50 of under 1 µM.

For `O=C(C1Cc2cc(Cl)cc(-c3ccnc(NCCO)c3)c2O1)N1CCNCC1` (centres unmarked) [(5-chloro-7-(2-((2-hydroxyethyl)amino)pyridin-4-yl)-2,3-dihydrobenzofuran-2-yl)(piperazin-1-yl)methanone], the concentration for half-maximal inhibition (IC50) was in the range of 1 to 10 µM.

`CCN1CCc2noc([C@H]3Cc4cc(Cl)cc(-c5ccnc6ccsc56)c4O3)c2C1` [(R)-3-(5-chloro-7-(thieno[3,2-b]pyridin-7-yl)-2,3-dihydrobenzofuran-2-yl)-5-ethyl-4,5,6,7-tetrahydroisoxazolo[4,3-c]pyridine]: the IC50 was under 1 µM.

On to `CNC(=O)C1Cc2nccc(-c3cc(Cl)cc4c3O[C@@H](c3onc5c3CNCC5)C4)c2C1` (stereo partly drawn) [4-((R)-5-chloro-2-(4,5,6,7-tetrahydroisoxazolo[4,3-c]pyridin-3-yl)-2,3-dihydrobenzofuran-7-yl)-N-methyl-6,7-dihydro-5H-cyclopenta[b]pyridine-6-carboxamide], for which the IC50 was 1 to 10 µM.

`CC[C@@H](O)c1cc2ncnc(-c3cc(Cl)cc4c3O[C@@H](c3onc5c3CNCC5)C4)c2s1` [(R)-1-(4-((R)-5-chloro-2-(4,5,6,7-tetrahydroisoxazolo[4,3-c]pyridin-3-yl)-2,3-dihydrobenzofuran-7-yl)thieno[3,2-d]pyrimidin-6-yl)propan-1-ol] registered an IC50 of under 1 µM.

As to `O=C([C@H]1CCc2cc(Cl)cc(-c3ccnc4cc(CO)sc34)c2O1)N1CCNCC1` [(R)-(6-chloro-8-(2-(hydroxymethyl)thieno[3,2-b]pyridin-7-yl)chroman-2-yl)(piperazin-1-yl)methanone], the IC50 was under 1 µM.

As for `C[C@@H](c1cc2nccc(-c3cc(Cl)cc4c3O[C@@H](C(=O)N3CCNCC3)C4)c2s1)N1C(=O)CCC1=O` [1-((S)-1-(7-((R)-5-chloro-2-(piperazine-1-carbonyl)-2,3-dihydrobenzofuran-7-yl)thieno[3,2-b]pyridin-2-yl)ethyl)pyrrolidine-2,5-dione], the half-inhibitory concentration (IC50) is under 1 µM.

On to `O[C@]1(c2cc3nccc(-c4cc(Cl)cc5c4O[C@@H](c4onc6c4CNCC6)C5)c3s2)CCOC1` [(R)-3-(7-((R)-5-chloro-2-(4,5,6,7-tetrahydroisoxazolo[4,3-c]pyridin-3-yl)-2,3-dihydrobenzofuran-7-yl)thieno[3,2-b]pyridin-2-yl)tetrahydrofuran-3-ol], for which the concentration for half-maximal inhibition (IC50) is under 1 µM.

Turning to `CC[C@@H](O)c1cc2nccc(-c3cc(Cl)cc4c3O[C@](C)(c3onc5c3CNCC5)C4)c2s1` [(R)-1-(7-((S)-5-chloro-2-methyl-2-(4,5,6,7-tetrahydroisoxazolo[4,3-c]pyridin-3-yl)-2,3-dihydrobenzofuran-7-yl)thieno[3,2-b]pyridin-2-yl)propan-1-ol], the IC50 was under 1 µM.

Turning to `Clc1cc2c(c(-c3ccnc4ccccc34)c1)O[C@@H](c1onc3c1CNCC3)C2` [(R)-3-(5-chloro-7-(quinolin-4-yl)-2,3-dihydrobenzofuran-2-yl)-4,5,6,7-tetrahydroisoxazolo[4,3-c]pyridine], the half-maximal inhibitory concentration (IC50) is under 1 µM.

Regarding `O=C(C1Cc2cc(Cl)cc(-c3ccnc4[nH]ccc34)c2O1)N1CCC(O)(c2ccccc2)CC1` (centres unmarked) [(5-chloro-7-(1H-pyrrolo[2,3-b]pyridin-4-yl)-2,3-dihydrobenzofuran-2-yl)(4-hydroxy-4-phenylpiperidin-1-yl)methanone], the IC50 lay in the range of 1 to 10 µM.

In turn, `O=C(C1Cc2cc(Cl)cc(-c3ccnc4[nH]ccc34)c2O1)N1CCN(c2cccnc2)CC1` (centres unmarked) [(5-chloro-7-(1H-pyrrolo[2,3-b]pyridin-4-yl)-2,3-dihydrobenzofuran-2-yl)(4-(pyridin-3-yl)piperazin-1-yl)methanone] displayed an IC50 of 1 to 10 µM.

`CCC(O)c1cc2nccc(-c3cc(Cl)cc4c3O[C@@H](c3onc5c3CNCC5)C4)c2o1` (stereo partly drawn) [drawing 1618, 1-(7-((R)-5-chloro-2-(4,5,6,7-tetrahydroisoxazolo[4,3-c]pyridin-3-yl)-2,3-dihydrobenzofuran-7-yl)furo[3,2-b]pyridin-2-yl)propan-1-ol]: the IC50 was under 1 µM.

`CC[C@@H](O)c1cc2nccc(-c3cc(Cl)cc4c3O[C@@H](c3onc5c3CNCC5)C4)c2s1` [(R)-1-(7-((R)-5-chloro-2-(4,5,6,7-tetrahydroisoxazolo[4,3-c]pyridin-3-yl)-2,3-dihydrobenzofuran-7-yl)thieno[3,2-b]pyridin-2-yl)propan-1-ol]: the 50% inhibitory concentration (IC50) is under 1 µM.

In turn, `OC1(c2cc3nccc(-c4cc(Cl)cc5c4O[C@@H](c4onc6c4CNCC6)C5)c3s2)CCC1` [(R)-1-(7-(5-chloro-2-(4,5,6,7-tetrahydroisoxazolo[4,3-c]pyridin-3-yl)-2,3-dihydrobenzofuran-7-yl)thieno[3,2-b]pyridin-2-yl)cyclobutan-1-ol] registered an IC50 of under 1 µM.

As to `CCC(O)c1cc2nccc(-c3cc(Cl)cc4c3O[C@@H](c3ocnc3CN3CCOCC3)C4)c2s1` (stereo partly drawn) [1-(7-((R)-5-chloro-2-(4-(morpholinomethyl)oxazol-5-yl)-2,3-dihydrobenzofuran-7-yl)thieno[3,2-b]pyridin-2-yl)propan-1-ol], the half-maximal inhibitory concentration (IC50) lay in the range of 1 to 10 µM.

For the compound `O=C(C1Cc2cc(Cl)cc(-c3ccnc4c3CCC4)c2O1)N1CCNCC1` (centres unmarked) [(5-chloro-7-(6,7-dihydro-5H-cyclopenta[b]pyridin-4-yl)-2,3-dihydrobenzofuran-2-yl)(piperazin-1-yl)methanone], the IC50 was under 1 µM.

Compound `O=C([C@H]1Cc2cc(Cl)cc(-c3ccnc4ccsc34)c2O1)N1CCNCC1` [(R)-(5-chloro-7-(thieno[3,2-b]pyridin-7-yl)-2,3-dihydrobenzofuran-2-yl)(piperazin-1-yl)methanone] returned a 50% inhibitory concentration (IC50) of under 1 µM.

For the compound `Clc1cc2c(c(-c3ccnc4ccsc34)c1)O[C@@H](c1[nH]nc3c1CNCC3)C2` [(R)-7-(5-chloro-2-(4,5,6,7-tetrahydro-2H-pyrazolo[4,3-c]pyridin-3-yl)-2,3-dihydrobenzofuran-7-yl)thieno[3,2-b]pyridine], the IC50 is under 1 µM.

Consider `FC(F)(F)c1ccc2c(-c3cc(Cl)cc4c3O[C@@H](c3onc5c3CNCC5)C4)ccnc2c1` [(R)-3-(5-chloro-7-(7-(trifluoromethyl)quinolin-4-yl)-2,3-dihydrobenzofuran-2-yl)-4,5,6,7-tetrahydroisoxazolo[4,3-c]pyridine], for which the IC50 was in the range of 1 to 10 µM.

`CC(O)c1cc2nccc(-c3cc(Cl)cc4c3O[C@@H](C(=O)N3CCNCC3)C4)c2s1` (stereo partly drawn) [((2R)-5-chloro-7-(2-(1-hydroxyethyl)thieno[3,2-b]pyridin-7-yl)-2,3-dihydrobenzofuran-2-yl)(piperazin-1-yl)methanone] displayed an IC50 of under 1 µM.

Regarding `O=C1CN(Cc2cc3nccc(-c4cc(Cl)cc5c4O[C@@H](C(=O)N4CCNCC4)C5)c3s2)C(=O)N1` [(R)-1-((7-(5-chloro-2-(piperazine-1-carbonyl)-2,3-dihydrobenzofuran-7-yl)thieno[3,2-b]pyridin-2-yl)methyl)imidazolidine-2,4-dione], the IC50 is under 1 µM.

Take `O=C(C1Cc2cc(Cl)cc(-c3ccnc4ccccc34)c2O1)N1CCNCC1` (centres unmarked) [(5-chloro-7-(quinolin-4-yl)-2,3-dihydrobenzofuran-2-yl)(piperazin-1-yl)methanone]: the IC50 lay in the range of 1 to 10 µM.

In turn, `O=C(C1Cc2cc(Cl)cc(-c3ccnc4[nH]ccc34)c2O1)N1CCN(c2ccncc2)CC1` (centres unmarked) [(5-chloro-7-(1H-pyrrolo[2,3-b]pyridin-4-yl)-2,3-dihydrobenzofuran-2-yl)(4-(pyridin-4-yl)piperazin-1-yl)methanone] came in with a half-maximal inhibitory concentration (IC50) of 1 to 10 µM.

Take `O=C([C@H]1Cc2cc(Cl)cc(-c3ccnc4cc(CO)sc34)c2O1)N1CCC(N2CCCCC2)CC1` [(R)-[1,4′-bipiperidin]-1′-yl(5-chloro-7-(2-(hydroxymethyl)thieno[3,2-b]pyridin-7-yl)-2,3-dihydrobenzofuran-2-yl)methanone]: the IC50 is under 1 µM.

Turning to `CCC(O)c1ccc2c(-c3cc(Cl)cc4c3O[C@@H](c3onc5c3CNCC5)C4)ccnc2c1` (stereo partly drawn) [1-(4-((R)-5-chloro-2-(4,5,6,7-tetrahydroisoxazolo[4,3-c]pyridin-3-yl)-2,3-dihydrobenzofuran-7-yl)quinolin-7-yl)propan-1-ol], the IC50 was 1 to 10 µM.

`Clc1cc2c(c(-c3ncnc4ccoc34)c1)O[C@@H](c1onc3c1CNCC3)C2` [(R)-3-(5-chloro-7-(furo[3,2-d]pyrimidin-4-yl)-2,3-dihydrobenzofuran-2-yl)-4,5,6,7-tetrahydroisoxazolo[4,3-c]pyridine] returned an IC50 of under 1 µM.

`O=C1CCC(=O)N1Cc1cc2nccc(-c3cc(Cl)cc4c3O[C@@H](c3onc5c3CNCC5)C4)n2n1` [(R)-1-((7-(5-chloro-2-(4,5,6,7-tetrahydroisoxazolo[4,3-c]pyridin-3-yl)-2,3-dihydrobenzofuran-7-yl)pyrazolo[1,5-a]pyrimidin-2-yl)methyl)pyrrolidine-2,5-dione]: the IC50 is under 1 µM.

Take `CN(C)[C@H]1CCc2noc(C3Cc4cc(Cl)cc(-c5ccnc6cc(CO)sc56)c4O3)c2C1` (stereo partly drawn) [(7-(5-chloro-2-((S)-5-(dimethylamino)-4,5,6,7-tetrahydrobenzo[c]isoxazol-3-yl)-2,3-dihydrobenzofuran-7-yl)thieno[3,2-b]pyridin-2-yl)methanol]: the IC50 fell in the range of 1 to 10 µM.

In turn, `CNC1CCN(C(=O)[C@H]2Cc3cc(Cl)cc(-c4ccnc5ccsc45)c3O2)CC1` [(R)-(5-chloro-7-(thieno[3,2-b]pyridin-7-yl)-2,3-dihydrobenzofuran-2-yl)(4-(methylamino)piperidin-1-yl)methanone] gave a half-inhibitory concentration (IC50) of under 1 µM.
